Data reported in patent publication EP0897923A1, “BENZOQUINOLIZINE DERIVATIVES AND MEDICINAL COMPOSITIONS” (priority 1996, dated 1997).
Marks after values point to notes of the source that are not given here.

Assays:
Format in all cases: in vivo
SD rats [1] = test: Effect on an IBS model (2): wrap-restraint stress, weight of fecal pellets, oral administration; details: for Inhibition (%) vs. control: weight of fecal pellets in one hour, male SD rats; for defecation accelerated by stress: result in words, summary of Test Examples 2 and 3, oral dose levels 10 and 30 mg/kg
Method: Six-week-old male SD rats, non-fasted, were used in groups of 8 individuals. In accordance with the method of Williams et al. (Gastroenterology, 1988; 94:611-621), animals in the control group and treatment groups were loaded with a wrap-restraint stress while those in the normal group were not loaded and weight (g) of the fecal pellets in the subsequent one-hour period was determined. In the treatment groups, a predetermined dose of the corresponding test drug was administered orally 60 minutes before stress loading. As reference control drugs, N-methyl-N-[(2RS,11bSR)-1,3,4,6,7,11b-hexahydro-2H-benzo[a]quinolizin-2-yl]propanesulfonamide hydrochloride (hereinafter referred to as Compound A) and N-(2-methanesulfonamidoethyl)-N-[(2RS,11bSR)-1,3,4,6,7,11b-hexahydro-2H-benzo[a]quinolizin-2-yl]benzenesulfonamide hydrochloride (hereinafter referred to as compound B), both of which are described in Japanese Laid-open S62-67031 as having gastrointestinal peristalsis-modulating activity were used. The inhibition rate (%) was calculated by means of the following equation. Inhibition rate = [(C-D)/(C-N)] x 100 [formula] where C represents the weight of the fecal pellets in the control group, D represents the weight of the fecal pellets in the treatment group, and N represents the weight of the fecal pellets in the normal group. Statistical significance of the treatment group versus the control group was tested by Dunnett's multiple comparison.

SD rats [2] = test: Effect on an IBS model (1): wrap-restraint stress, weight of fecal pellets, subcutaneous administration; details: 3 mg/kg subcutaneously 30 minutes before wrap-restraint stress, weight of fecal pellets in one hour, male SD rats
Method: Six-week-old male SD rats, non-fasted, were used in groups of 8 individuals. In accordance with the method of Williams et al. (Gastroenterology, 1988; 94:611-621), animals in the control group and treatment groups were loaded with a wrap-restraint stress while those in the normal group were not loaded and weight (g) of fecal pellets in the subsequent one-hour period was determined. In the treatment groups, a predetermined dose of the corresponding test drug was administered subcutaneously 30 minutes before stress loading. The inhibition rate (%) was calculated by means of the following equation. Inhibition rate = [(C-D)/(C-N)] x 100 [formula] where C represents the weight of the fecal pellets in the control group, D represents the weight of the fecal pellets in the treatment group, and N represents the weight of the fecal pellets in the normal group. Statistical significance of the treatment group versus the control group was tested by Dunnett's multiple comparison.

ddY mice = test: Acute toxicity test; details: fasted male ddY mice, deaths during one week
Method: Six-week-old male ddY mice were used in groups of 5 individuals. The animals were fasted from the previous day (16-18 hours before the experiment) and a predetermined dose of the compound of the invention was administered orally. The number of deaths during the subsequent one-week period was investigated.

SD rats [3] = test: Effect on an IBS model (3): water avoidance stress, number of fecal pellets, oral administration; details: number of fecal pellets in one hour, male SD rats
Method: Six-week-old male SD rats were used in groups of 8 individuals. In accordance with the method of Enck et al. (Gut, 1989; 30:455-459), animals in the control group and treatment groups were loaded with water avoidance stress, while those in the normal groups were not loaded and the number of fecal pellets during the subsequent one-hour period was determined. In the treatment groups, a predetermined dose of the corresponding test drug was administered orally 60 minutes before stress loading. As reference control drugs, Compound A and Compound B mentioned above were used. The inhibition rate (%) was calculated by means of the following equation. Inhibition rate (%) = [(NC-ND)/(NC-NN)] x 100 [formula] where NC represents the number of the fecal pellets in the control group, ND represents the number of the fecal pellets in the treatment group, and NN represents the number of the fecal pellets in the normal group. Statistical significance of the treatment group versus the control group was tested by Dunnett's multiple comparison.

[4] = 10 mg/kg orally 60 minutes before wrap-restraint stress
[5] = 30 mg/kg orally 60 minutes before wrap-restraint stress
[6] = 10 mg/kg orally 60 minutes before wrap-restraint stress, hydrochloride
[7] = 30 mg/kg orally 60 minutes before water avoidance stress

In the case of CCS(=O)(=O)N(C)[C@@H]1CCN2CCc3cc(OC)ccc3[C@@H]2C1.Cl [Compound No. 20, N-Methyl-N-[(2R,11bS)-9-methoxy-1,3,4,6,7,11b-hexahydro-2H-benzo[a]quinolizin-2-yl]ethanesulfonamide hydrochloride], the “Inhibition (%) vs. control” value (SD rats [1]; [4]) is reported as 69.4** % and the “Inhibition (%) vs. control” value (SD rats [1]; [5]) is reported as 88.9** %.

In the case of COc1ccc2c(c1)CCN1CC[C@@H](N(C)S(C)(=O)=O)C[C@@H]21.Cl [Compound No. 18, N-Methyl-N-[(2R,11bS)-9-methoxy-1,3,4,6,7,11b-hexahydro-2H-benzo[a]quinolizin-2-yl]methanesulfonamide hydrochloride], the “Inhibition (%) vs. control” value (SD rats [1]; [6]) is reported as 91.1** %, the “Inhibition (%) vs. control” value (SD rats [2]; hydrochloride) is reported as 96.6** % and the Dead/Total (ddY mice; 250 mg/kg orally) is reported as 0/5. For the same molecule, the “Inhibition (%) vs. control” value (SD rats [3]; 3 mg/kg orally 60 minutes before water avoidance stress) was 72.4* % and the “Inhibition (%) vs. control” value (SD rats [3]; 10 mg/kg orally 60 minutes before water avoidance stress) was 82.9** %.

For CCN([C@@H]1CCN2CCc3cc(OC)ccc3[C@@H]2C1)S(C)(=O)=O.Cl [Compound No. 21, N-Ethyl-N-[(2R,11bS)-9-methoxy-1,3,4,6,7,11b-hexahydro-2H-benzo[a]quinolizin-2-yl]methanesulfonamide hydrochloride], the “Inhibition (%) vs. control” value (SD rats [1]; [4]) was 64.6** %, the “Inhibition (%) vs. control” value (SD rats [1]; [5]) was 92.6** % and the Dead/Total (ddY mice; 250 mg/kg orally) was 0/5.

In the case of COc1ccc2c(c1)CCN1CC[C@@H](N(C)S(=O)(=O)c3cc(OC)ccc3OC)C[C@@H]21.Cl (racemic) [Compound No. 14, N-methyl-N-[(2RS,11bSR)-9-methoxy-1,3,4,6,7,11b-hexahydro-2H-benzo[a]quinolizin-2-yl]-2,5-dimethoxybenzenesulfonamide hydrochloride], the “Inhibition (%) vs. control” value (SD rats [2]) is reported as 75.6** %.

CS(=O)(=O)NCCN([C@@H]1CCN2CCc3ccccc3[C@@H]2C1)S(=O)(=O)c1ccccc1.Cl (racemic) [Compound B, N-(2-methanesulfonamidoethyl)-N-[(2RS,11bSR)-1,3,4,6,7,11b-hexahydro-2H-benzo[a]quinolizin-2-yl]benzenesulfonamide hydrochloride, reference compound] was tested, and the “Inhibition (%) vs. control” value (SD rats [1]; [4]) was -4.7%, the “Inhibition (%) vs. control” value (SD rats [1]; [5]) was -30.0% and the “defecation accelerated by stress” value (SD rats [1]) was “did not inhibit defecation accelerated by stress”. The “Inhibition (%) vs. control” value (SD rats [3]; [7]) was -58.3%.

For CCCS(=O)(=O)N(C)[C@@H]1CCN2CCc3ccccc3[C@@H]2C1.Cl (racemic) [Compound A, N-methyl-N-[(2RS,11bSR)-1,3,4,6,7,11b-hexahydro-2H-benzo[a]quinolizin-2-yl]propanesulfonamide hydrochloride, reference compound], the “Inhibition (%) vs. control” value (SD rats [1]; [4]) was -1.2%, the “Inhibition (%) vs. control” value (SD rats [1]; [5]) was 1.4% and the “defecation accelerated by stress” value (SD rats [1]) was “did not inhibit defecation accelerated by stress”. For the same molecule, the “Inhibition (%) vs. control” value (SD rats [3]; [7]) was -20.7%.

In the case of COc1ccc(S(=O)(=O)N(C)[C@@H]2CCN3CCc4cc(OC)ccc4[C@@H]3C2)cc1.Cl (racemic) [Compound No. 6, N-Methyl-N-[(2RS,11bSR)-9-methoxy-1,3,4,6,7,11b-hexahydro-2H-benzo[a]quinolizin-2-yl]-4-methoxybenzenesulfonamide hydrochloride], the “Inhibition (%) vs. control” value (SD rats [2]) is reported as 86.2** % and the Dead/Total (ddY mice; 100 mg/kg orally) is reported as 0/5.

COc1ccc2c(c1)CCN1CC[C@@H](N(C)S(C)(=O)=O)C[C@@H]21.Cl (racemic) [Compound No. 1, N-Methyl-N-[(2RS,11bSR)-9-methoxy-1,3,4,6,7,11b-hexahydro-2H-benzo[a]quinolizin-2-yl]methanesulfonamide hydrochloride] was tested, and the “Inhibition (%) vs. control” value (SD rats [1]; [6]) was 53.2* %, the “Inhibition (%) vs. control” value (SD rats [1]; [5]) was 96.6** % and the “Inhibition (%) vs. control” value (SD rats [2]; hydrochloride) was 97.7** %. The Dead/Total (ddY mice; 100 mg/kg orally) was 0/5 and the “Inhibition (%) vs. control” value (SD rats [3]; [7]) was 81.8* %.

With COc1ccc2c(c1)CCN1CC[C@@H](N(C)S(=O)(=O)N(C)C)C[C@@H]21.Cl (racemic) [Compound No. 16, N,N-Dimethyl-N'-[(2RS-11bSR)-9-methoxy-1,3,4,6,7,11b-hexahydro-2H-benzo[a]quinolizin-2-yl]-N'-methylsulfamide hydrochloride] the “Inhibition (%) vs. control” value (SD rats [1]; [4]) was 73.3** %, the “Inhibition (%) vs. control” value (SD rats [1]; [5]) was 91.7** % and the Dead/Total (ddY mice; 300 mg/kg orally) was 0/5.

In the case of COc1ccc2c(c1)CCN1CC[C@@H](N(C)S(=O)(=O)c3ccccc3)C[C@@H]21.Cl (racemic) [Compound No. 7, N-methyl-N-[(2RS,11bSR)-9-methoxy-1,3,4,6,7,11b-hexahydro-2H-benzo[a]quinolizin-2-yl]benzenesulfonamide hydrochloride], the “Inhibition (%) vs. control” value (SD rats [2]) is reported as 76.6** %.

In the case of COc1ccc2c(c1)CCN1CC[C@@H](N(C)S(=O)(=O)c3ccc(F)cc3)C[C@@H]21.Cl (racemic) [Compound No. 13, N-methyl-N-[(2RS,11bSR)-9-methoxy-1,3,4,6,7,11b-hexahydro-2H-benzo[a]quinolizin-2-yl]-4-fluorobenzenesulfonamide hydrochloride], the “Inhibition (%) vs. control” value (SD rats [2]) is reported as 72.4** %.
